According to patent US8383616B2, “Aryl isoxazole compounds with antitumoural activities” (Sigma-Tau Industrie Farmaceutiche Riunite SpA, priority 2008, dated 2013):

Columns and labels:
[1] = test system: NCI-H460 non-small cell lung carcinoma cells; test: Cytotoxicity assay (sulphorodamine B test), NCI-H460; assay type: cell-based; conditions: Homo sapiens, NCI-H460, 72-h exposure
Protocol: To evaluate the effect of the compounds on cells survival, the sulphorodamine B test was used. To test the effects of the compounds on cell growth, NCI-H460 non-small cell lung carcinoma cells were used. Tumour cells were grown in RPMI 1640 containing 10% fetal bovine serum (GIBCO).
(§1) Tumour cells were seeded in 96-well tissue culture plates at approximately 10% confluence and were allowed to attach and recover for at least 24 h. Varying concentrations of the drugs were then added to each well to calculate their IC50 value (the concentration which inhibits the 50% of cell survival). The plates were incubated at 37° C. for 72 h. At the end of the treatment, the plates were washed by removal of the supernatant and addition of phosphate buffered saline (PBS) 3 times. 200 μl PBS and 50 μl of cold 80% trichloroacetic acid (TCA) were added. The plates were incubated on ice for at least 1 h. TCA was removed, the plates were washed 3 times by immersion in distilled water and dried on paper and at 40° C. for 5 min. Then 200 μl of 0.4% sulphorodamine B in 1% acetic acid were added. The plates were incubated at RT for 30 min. Sulphorodamine B was removed, the plates were washed by immersion in 1% acetic acid for 3 times, then they were dried on paper and at 40° C. for 5 min. Then, 200 μl Tris 10 mM were added, the plates were kept under stirring for 20 min. The cell survival was determined as optical density by a Multiskan spectrofluorimeter at 540 nm. The amount of cells killed was calculated as the percentage decrease in sulphorodamine B binding compared with control cultures.
(§2) The IC50 values were calculated with the “ALLFIT” program.
(§3) The antiproliferative IC50 was evaluated as drug concentration required for 50% reduction of cell growth as compared with untreated controls after 72-h exposure to the drug. The IC50±SD values reported were calculated by ALLFIT program.

[2] = test system: human epithelial carcinoma cell line A431; test: Cytotoxicity assay (sulphorodamine B test), A431; assay type: cell-based; conditions: Homo sapiens, A-431, 72-h exposure
Protocol: as §1, §2
The antiproliferative activity of novel Hsp90 inhibitors was evaluated on NCI-H460 non-small cell lung carcinoma cells and on a human epithelial carcinoma cell line A431.
as §3

Hsp90 = target: T1, Hsp90 (Homo sapiens, UniProt P07900); test: Fluorescence polarization (FP) binding assay, displacement of GM-BODIPY; conditions: GM-BODIPY tracer, 125 nM Hsp90, 4 h at 4° C.; read-out: F.P. binding assay IC50
T1 construct: purchased Stressgen SPP-776
Protocol: Fluorescence Polarization (FP)
GM-BODIPY (PerkinElmer, CUSN60342000MG) was previously dissolved in DMSO to obtain 10 mM stock solutions and kept at −20° C. until use.
The compounds were previously dissolved in DMSO to obtain stock solutions and kept at −20° C. The day of experiment, the compounds were prepared by serial dilutions in HFB. Before each use, 0.1 mg/ml Bovine Gamma globulin and 2 mM DTT were freshly added.
The plate was mixed on a shaker at 4° C. for 4 hours, and the FP values in mP (millipolarization units) were recorded. […] Curve fitting was performed using Prism GraphPad software program (GraphPad software, Inc., San Diego, Calif.).
Curve fitting was performed using Prism GraphPad software program (GraphPad software, Inc., San Diego, Calif.).

Structure (SMILES) | IC50 [1] [µM] | IC50 [2] [µM] | IC50 (Hsp90) [µM]
CCCCC[C@H]1CC[C@H](C(=O)Nc2c(C(=O)NCC)noc2-c2cc(C(C)C)c(O)cc2O)CC1 [Example 20, 5-(2,4-dihydroxy-5-isopropyl-phenyl)-4-[(trans-4-pentyl-cyclohexanecarbonyl)-amino]-isoxazole-3-carboxylic acid ethylamide] | 1 to 10 | 1 to 10 | 0.1 to 1
CCNC(=O)c1noc(-c2cc(C(C)C)c(O)cc2O)c1NC(=O)C1CCC(C(F)(F)F)CC1 (stereo not drawn) [Example 21, 5-(2,4-dihydroxy-5-isopropyl-phenyl)-4-[(4-trifluoromethyl-cyclohexanecarbonyl)-amino]-isoxazole-3-carboxylic acid ethylamide] | < 0.1 | < 0.1 | 0.1 to 1
CCNC(=O)c1cc(C(=O)Nc2c(C(=O)NCC)noc2-c2cc(C(C)C)c(O)cc2O)on1 [Example 22, N^5-(3-(ethylcarbamoyl)-5-(2,4-dihydroxy-5-isopropylphenyl)-isoxazol-4-yl)-N^3-ethylisoxazole-3,5-dicarboxamide] | 1 to 10 | 1 to 10 | < 0.1
CCNC(=O)c1noc(-c2cc(Cl)c(O)cc2O)c1NCc1ccc(OC)cc1 [Example 27, 4-(4-methoxybenzylamino)-5-(5-chloro-2,4-dihydroxyphenyl)-N-ethylisoxazole-3-carboxamide] | 1 to 10 | 1 to 10 | 0.1 to 1
CCNC(=O)c1noc(-c2cc(Cl)c(O)cc2O)c1NCc1sccc1C [Example 28, 4-((3-methylthiophen-2-yl)methylamino)-5-(5-chloro-2,4-dihydroxyphenyl)-N-ethylisoxazole-3-carboxamide] | 1 to 10 | 1 to 10 | 0.1 to 1
CCNC(=O)c1noc(-c2cc(Cl)c(O)cc2O)c1NC1CCCCC1 [Example 29, 5-(5-chloro-2,4-dihydroxyphenyl)-4-(cyclohexylamino)-N-ethylisoxazole-3-carboxamide] | 1 to 10 | 1 to 10 | 0.1 to 1
CCNC(=O)c1noc(-c2cc(Cl)c(O)cc2O)c1NC1CCN(C)CC1 [Example 30, 4-(1-methylpiperidin-4-ylamino)-5-(5-chloro-2,4-dihydroxyphenyl)-N-ethylisoxazole-3-carboxamide] | 1 to 10 | 1 to 10 | 1 to 10
CCNC(=O)c1noc(-c2cc(Cl)c(O)cc2O)c1NCc1cc(C(=O)OC)no1 [Example 31, Methyl 5-((3-(ethylcarbamoyl)-5-(5-chloro-2,4-dihydroxyphenyl)isoxazol-4-ylamino)methyl)isoxazole-3-carboxylate] | 1 to 10 | 1 to 10 | < 0.1
CCNC(=O)c1noc(-c2cc(Cl)c(O)cc2O)c1NCc1cc(CO)no1 [Example 32, 4-((3-(hydroxymethyl)isoxazol-5-yl)methylamino)-5-(5-chloro-2,4-dihydroxyphenyl)-N-ethylisoxazole-3-carboxamide] | 1 to 10 | 1 to 10 | 0.1 to 1
COc1ccc(C(=O)Nc2c(C(=O)NCC(F)(F)F)noc2-c2cc(Cl)c(O)cc2O)cc1 [Example 33, 4-(4-methoxybenzamido)-5-(5-chloro-2,4-dihydroxyphenyl)-N-(2,2,2-trifluoroethyl)-isoxazole-3-carboxamide] | 1 to 10 | 0.1 to 1 | 0.1 to 1
